{"source": "ChEMBL document CHEMBL4354815", "about": "“Fibrinolysis Inhibitors: Potential Drugs for the Treatment and Prevention of Bleeding” (J Med Chem, 2020)", "key": {"Plasminogen [1]": {"target": "T1, Plasminogen (Homo sapiens, UniProt P00747)", "T1 sequence (P00747 97-580 limits assumed)": "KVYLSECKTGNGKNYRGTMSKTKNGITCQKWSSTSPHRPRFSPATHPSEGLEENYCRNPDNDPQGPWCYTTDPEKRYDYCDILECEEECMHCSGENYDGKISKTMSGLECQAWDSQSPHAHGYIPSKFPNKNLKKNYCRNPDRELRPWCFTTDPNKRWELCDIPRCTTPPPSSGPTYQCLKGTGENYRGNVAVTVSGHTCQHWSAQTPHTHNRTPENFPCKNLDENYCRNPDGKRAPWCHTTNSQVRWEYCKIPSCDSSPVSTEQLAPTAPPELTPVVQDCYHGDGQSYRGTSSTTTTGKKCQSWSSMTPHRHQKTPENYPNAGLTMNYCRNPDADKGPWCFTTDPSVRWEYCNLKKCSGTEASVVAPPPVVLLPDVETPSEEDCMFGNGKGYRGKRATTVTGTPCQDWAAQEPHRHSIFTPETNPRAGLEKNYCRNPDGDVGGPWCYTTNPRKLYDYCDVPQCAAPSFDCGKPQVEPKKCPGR", "T1 sequence (P00747 581-810 limits assumed)": "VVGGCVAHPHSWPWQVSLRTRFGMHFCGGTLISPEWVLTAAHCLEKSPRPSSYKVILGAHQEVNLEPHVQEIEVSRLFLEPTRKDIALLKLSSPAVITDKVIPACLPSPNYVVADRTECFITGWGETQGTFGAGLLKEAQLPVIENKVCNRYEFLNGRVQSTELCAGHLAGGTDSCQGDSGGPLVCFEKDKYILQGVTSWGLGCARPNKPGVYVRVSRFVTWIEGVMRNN", "assay": "Inhibition of human plasmin preincubated for 15 mins followed by MeOSuc-Ala-Phe-Lys-AMC substrate addition and measured after 30 mins by fluorescence method"}, "Coagulation factor XI": {"target": "Coagulation factor XI (Homo sapiens, UniProt P03951)", "sequence (P03951 19-387 limits assumed)": "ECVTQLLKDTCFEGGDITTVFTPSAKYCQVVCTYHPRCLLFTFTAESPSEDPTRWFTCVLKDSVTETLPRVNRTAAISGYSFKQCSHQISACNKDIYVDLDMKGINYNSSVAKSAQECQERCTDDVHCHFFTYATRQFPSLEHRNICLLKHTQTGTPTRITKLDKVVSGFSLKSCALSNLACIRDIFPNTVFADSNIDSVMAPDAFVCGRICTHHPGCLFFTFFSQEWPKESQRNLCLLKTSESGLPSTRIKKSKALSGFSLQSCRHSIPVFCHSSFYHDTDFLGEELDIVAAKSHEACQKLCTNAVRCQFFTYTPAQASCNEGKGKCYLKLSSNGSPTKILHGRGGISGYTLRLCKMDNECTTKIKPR", "sequence (P03951 388-625 limits assumed)": "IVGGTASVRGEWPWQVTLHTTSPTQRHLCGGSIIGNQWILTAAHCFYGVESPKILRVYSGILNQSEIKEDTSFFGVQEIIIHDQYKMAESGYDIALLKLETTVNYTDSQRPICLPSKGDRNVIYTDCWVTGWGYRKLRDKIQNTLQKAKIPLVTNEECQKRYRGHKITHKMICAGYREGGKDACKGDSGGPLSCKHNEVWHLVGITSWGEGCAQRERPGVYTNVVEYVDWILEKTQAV", "assay": "Inhibition of human factor 11a preincubated for 15 mins followed by Boc-Glu (OBzl) -Ala-Arg-AMC and measured after 30 mins by fluorescence method"}, "Coagulation factor XII": {"target": "T2, Coagulation factor XII (Homo sapiens, UniProt P00748)", "T2 sequence (P00748 whole entry)": "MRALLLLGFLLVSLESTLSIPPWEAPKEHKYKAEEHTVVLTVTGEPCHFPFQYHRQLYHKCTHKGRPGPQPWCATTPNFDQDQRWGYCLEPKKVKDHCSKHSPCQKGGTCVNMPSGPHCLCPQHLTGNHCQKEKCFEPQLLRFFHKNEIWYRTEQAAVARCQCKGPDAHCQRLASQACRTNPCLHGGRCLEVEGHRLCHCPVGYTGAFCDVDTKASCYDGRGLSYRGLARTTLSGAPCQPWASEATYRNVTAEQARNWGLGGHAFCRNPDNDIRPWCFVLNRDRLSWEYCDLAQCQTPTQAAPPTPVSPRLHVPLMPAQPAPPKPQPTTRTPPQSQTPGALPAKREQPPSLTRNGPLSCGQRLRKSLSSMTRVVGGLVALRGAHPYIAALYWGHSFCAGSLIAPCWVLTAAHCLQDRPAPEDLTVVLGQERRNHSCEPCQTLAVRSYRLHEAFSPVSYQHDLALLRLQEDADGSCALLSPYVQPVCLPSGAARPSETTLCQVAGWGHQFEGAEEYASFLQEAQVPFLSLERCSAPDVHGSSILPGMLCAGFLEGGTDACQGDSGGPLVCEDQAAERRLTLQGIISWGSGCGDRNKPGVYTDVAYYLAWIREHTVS", "assay": "Inhibition of human factor 12a using CHA-Gly-Arg- pNA as substrate"}, "Prothrombin": {"target": "Prothrombin (Homo sapiens, UniProt P00734)", "assay": "Inhibition of human factor 2a using Mes-d-Cha-Gly-Arg-pNA as substrate"}, "[2]": {"target": "T3, Complement C1r subcomponent (Homo sapiens, UniProt P00736)", "T3 sequence (P00736 whole entry)": "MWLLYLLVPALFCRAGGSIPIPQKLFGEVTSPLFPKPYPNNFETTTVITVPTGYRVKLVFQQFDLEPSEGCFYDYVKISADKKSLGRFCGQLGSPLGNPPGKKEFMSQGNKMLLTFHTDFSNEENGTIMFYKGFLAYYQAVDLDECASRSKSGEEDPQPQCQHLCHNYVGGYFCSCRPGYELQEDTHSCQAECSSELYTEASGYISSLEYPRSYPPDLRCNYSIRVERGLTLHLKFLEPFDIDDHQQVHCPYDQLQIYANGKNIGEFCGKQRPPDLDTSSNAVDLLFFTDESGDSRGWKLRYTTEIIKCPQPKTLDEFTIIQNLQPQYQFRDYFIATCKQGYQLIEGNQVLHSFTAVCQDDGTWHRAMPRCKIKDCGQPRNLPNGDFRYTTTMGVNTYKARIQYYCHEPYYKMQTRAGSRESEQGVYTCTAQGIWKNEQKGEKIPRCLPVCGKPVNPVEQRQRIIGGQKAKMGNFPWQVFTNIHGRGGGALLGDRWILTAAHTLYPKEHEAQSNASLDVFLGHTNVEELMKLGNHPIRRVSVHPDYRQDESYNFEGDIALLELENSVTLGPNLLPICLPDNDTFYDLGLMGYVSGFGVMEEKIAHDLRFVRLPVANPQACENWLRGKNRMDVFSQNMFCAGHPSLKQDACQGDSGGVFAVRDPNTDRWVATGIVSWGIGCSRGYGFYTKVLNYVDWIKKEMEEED", "assay": "Inhibition of human Complement C1r subcomponent using Val-Ser-Arg-pNA as substrate"}, "[3]": {"target": "T4, Complement C1s subcomponent (Homo sapiens, UniProt P09871)", "T4 sequence (P09871 whole entry)": "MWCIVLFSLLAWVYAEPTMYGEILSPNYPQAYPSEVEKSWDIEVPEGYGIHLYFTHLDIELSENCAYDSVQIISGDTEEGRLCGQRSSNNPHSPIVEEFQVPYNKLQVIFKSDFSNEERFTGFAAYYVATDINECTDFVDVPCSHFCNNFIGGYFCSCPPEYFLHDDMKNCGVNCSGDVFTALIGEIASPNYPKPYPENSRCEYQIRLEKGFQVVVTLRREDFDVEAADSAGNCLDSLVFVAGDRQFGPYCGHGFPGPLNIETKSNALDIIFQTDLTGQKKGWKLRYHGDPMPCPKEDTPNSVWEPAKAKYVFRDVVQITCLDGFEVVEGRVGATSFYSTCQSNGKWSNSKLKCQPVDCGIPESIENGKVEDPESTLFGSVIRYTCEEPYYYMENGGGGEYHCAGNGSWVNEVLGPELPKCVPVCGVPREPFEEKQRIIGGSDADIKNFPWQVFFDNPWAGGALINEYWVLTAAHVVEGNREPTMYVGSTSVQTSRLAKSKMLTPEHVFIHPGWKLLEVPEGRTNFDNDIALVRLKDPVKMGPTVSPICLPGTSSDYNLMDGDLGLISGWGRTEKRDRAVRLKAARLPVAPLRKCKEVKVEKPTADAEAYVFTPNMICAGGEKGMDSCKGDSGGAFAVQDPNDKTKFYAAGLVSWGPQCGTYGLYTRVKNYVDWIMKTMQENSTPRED", "assay": "Inhibition of human Complement C1s subcomponent using Val-Ser-Arg-pNA as substrate"}, "[4]": {"target": "Vitamin K-dependent protein C (Homo sapiens, UniProt P04070)", "sequence (P04070 43-197 limits assumed)": "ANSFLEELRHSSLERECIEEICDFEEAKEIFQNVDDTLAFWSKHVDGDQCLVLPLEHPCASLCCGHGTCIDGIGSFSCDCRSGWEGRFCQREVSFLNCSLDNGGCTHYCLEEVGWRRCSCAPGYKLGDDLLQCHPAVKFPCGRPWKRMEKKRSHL", "sequence (P04070 212-461 limits assumed)": "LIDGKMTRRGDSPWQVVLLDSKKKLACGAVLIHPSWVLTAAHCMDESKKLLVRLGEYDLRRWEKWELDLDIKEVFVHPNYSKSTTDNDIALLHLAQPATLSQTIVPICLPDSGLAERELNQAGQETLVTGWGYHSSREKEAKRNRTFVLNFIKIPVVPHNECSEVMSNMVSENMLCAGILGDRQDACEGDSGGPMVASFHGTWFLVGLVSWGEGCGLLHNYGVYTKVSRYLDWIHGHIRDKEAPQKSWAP", "assay": "Inhibition of human activated protein […] C using H-D-Lys(Cbo)-Pro-Arg-pNA as substrate"}, "Coagulation factor X": {"target": "Coagulation factor X (Homo sapiens, UniProt P00742)", "sequence (P00742 41-179 limits assumed)": "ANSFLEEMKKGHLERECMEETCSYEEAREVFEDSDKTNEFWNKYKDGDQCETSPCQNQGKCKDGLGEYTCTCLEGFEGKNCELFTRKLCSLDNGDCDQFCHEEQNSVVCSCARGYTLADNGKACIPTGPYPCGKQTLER", "sequence (P00742 235-488 limits assumed)": "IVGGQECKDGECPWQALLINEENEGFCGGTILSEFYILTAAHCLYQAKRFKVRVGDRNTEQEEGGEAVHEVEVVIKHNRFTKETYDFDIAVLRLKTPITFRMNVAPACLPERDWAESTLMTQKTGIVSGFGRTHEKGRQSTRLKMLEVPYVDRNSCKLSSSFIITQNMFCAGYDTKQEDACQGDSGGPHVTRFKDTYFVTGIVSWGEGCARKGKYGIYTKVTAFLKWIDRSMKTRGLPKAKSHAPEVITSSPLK", "assay": "Inhibition of human factor 10a using MeOCO-d-Cha-Gly-Arg-pNA as substrate"}, "[5]": {"target": "Tissue-type plasminogen activator (Homo sapiens, UniProt P00750)", "sequence (P00750 whole entry)": "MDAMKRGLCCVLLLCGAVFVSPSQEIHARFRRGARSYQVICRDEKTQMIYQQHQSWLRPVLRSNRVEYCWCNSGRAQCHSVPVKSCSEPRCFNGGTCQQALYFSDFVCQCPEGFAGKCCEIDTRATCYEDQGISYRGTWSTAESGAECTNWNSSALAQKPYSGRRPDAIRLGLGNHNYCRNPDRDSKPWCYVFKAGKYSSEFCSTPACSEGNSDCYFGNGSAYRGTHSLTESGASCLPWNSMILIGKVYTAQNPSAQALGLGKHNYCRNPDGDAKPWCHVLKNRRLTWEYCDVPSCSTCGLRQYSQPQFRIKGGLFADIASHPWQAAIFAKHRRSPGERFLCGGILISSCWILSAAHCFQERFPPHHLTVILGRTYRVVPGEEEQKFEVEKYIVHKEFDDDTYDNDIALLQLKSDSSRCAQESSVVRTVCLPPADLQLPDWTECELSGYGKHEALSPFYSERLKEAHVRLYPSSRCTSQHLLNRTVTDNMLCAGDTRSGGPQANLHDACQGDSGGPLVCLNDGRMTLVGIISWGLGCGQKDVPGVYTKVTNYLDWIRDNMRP", "assay": "Inhibition of human tissue-type plasminogen activator using Mes-d-Cha- Gly-Arg-pNA as substrate"}, "[6]": {"assay": "Inhibition of human urinary kallikrein using H-D-Val-Leu-Arg-pNA as substrate"}, "Plasma kallikrein [7]": {"target": "T5, Plasma kallikrein (Homo sapiens, UniProt P03952)", "T5 sequence (P03952 20-390 limits assumed)": "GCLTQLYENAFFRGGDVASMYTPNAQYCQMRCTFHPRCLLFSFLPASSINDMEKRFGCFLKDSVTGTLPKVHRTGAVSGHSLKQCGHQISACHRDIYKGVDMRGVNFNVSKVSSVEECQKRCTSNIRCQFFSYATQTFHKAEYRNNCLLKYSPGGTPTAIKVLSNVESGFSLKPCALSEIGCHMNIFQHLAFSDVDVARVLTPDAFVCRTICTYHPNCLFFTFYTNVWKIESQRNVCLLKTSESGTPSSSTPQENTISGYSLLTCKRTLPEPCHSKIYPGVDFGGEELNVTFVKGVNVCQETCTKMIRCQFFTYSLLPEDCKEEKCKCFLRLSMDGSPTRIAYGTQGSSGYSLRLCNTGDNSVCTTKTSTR", "T5 sequence (P03952 391-638 limits assumed)": "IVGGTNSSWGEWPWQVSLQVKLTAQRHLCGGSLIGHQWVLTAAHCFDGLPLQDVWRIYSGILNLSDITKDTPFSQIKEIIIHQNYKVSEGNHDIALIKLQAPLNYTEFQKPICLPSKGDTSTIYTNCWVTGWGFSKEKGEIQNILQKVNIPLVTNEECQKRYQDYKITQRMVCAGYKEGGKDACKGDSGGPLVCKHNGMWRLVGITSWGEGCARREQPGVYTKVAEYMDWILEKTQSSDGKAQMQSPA", "assay": "Inhibition of human plasma kallikrein preincubated for 15 mins followed by H-Pro-Phe-Arg-AMC substrate addition and measured after 30 mins by fluorescence method"}, "Plasma kallikrein [8]": {"target": "T5, Plasma kallikrein", "assay": "Inhibition of human plasma kallikrein using S2302 as substrate after 10 mins by UV/Vis photometry"}, "Plasminogen [9]": {"target": "T1, Plasminogen", "assay": "Inhibition of human plasmin using tosyl-Gly-Pro-Lys-pNA as substrate after 10 mins by UV/Vis photometry"}, "Plasma": {"tested_on": "Plasma", "assay": "Anti-fibrinolytic activity in 5% human plasma in presence of fibrinogen by spectrophotometric method", "assay_type": "functional, cell-free"}, "Plasminogen [10]": {"target": "T1, Plasminogen", "assay": "Inhibition of plasmin (unknown origin) assessed as reduction in amidolytic activity using S-2251 as the substrate after 4 mins"}, "[11]": {"target": "Urokinase-type plasminogen activator (Homo sapiens, UniProt P00749)", "assay": "Inhibition of urokinase-type plasminogen activator (unknown origin)"}, "Plasminogen [12]": {"target": "T1, Plasminogen", "assay": "Inhibition of plasmin (unknown origin)"}}}
{"smiles": "Cc1nc2[nH]c(C3CC3)nc2cc1-c1ccc(C[C@H](NC(=O)[C@H]2CC[C@H](CN)CC2)C(=O)Nc2cc(Cl)c3[nH]c(=O)[nH]c3c2)cc1", "values": [{"measurement": "IC50", "setting": "Plasminogen [1]", "value": 0.4, "unit": "nM"}, {"measurement": "IC50", "setting": "Coagulation factor XI", "value": 0.7, "unit": "nM"}]}
{"smiles": "N=C(N)c1ccc(CNC(=O)[C@H](CCC2CCNCC2)NC(=O)[C@@H](CCC2CCN(C(=O)C3CC3)CC2)NS(=O)(=O)Cc2ccccc2)cc1", "values": [{"measurement": "Ki", "setting": "Coagulation factor XII", "value": "> 1000", "unit": "nM"}, {"measurement": "Ki", "setting": "Prothrombin", "value": "> 1000", "unit": "nM"}, {"measurement": "Ki", "setting": "[2]", "value": "> 1000", "unit": "nM"}, {"measurement": "Ki", "setting": "[3]", "value": "> 1000", "unit": "nM"}, {"measurement": "Ki", "setting": "[4]", "value": "> 1000", "unit": "nM"}, {"measurement": "Ki", "setting": "Coagulation factor X", "value": "> 1000", "unit": "nM"}, {"measurement": "Ki", "setting": "[5]", "value": "> 1000", "unit": "nM"}, {"measurement": "Ki", "setting": "[6]", "value": "> 1000", "unit": "nM"}]}
{"smiles": "Cc1nc2nc(C(C)C)[nH]c2cc1-c1ccc(C[C@H](NC(=O)[C@H]2CC[C@H](CN)CC2)C(=O)Nc2ccc(-c3nnc(C(F)(F)C(F)(F)C(=O)O)[nH]3)cc2)cc1", "values": [{"measurement": "IC50", "setting": "Plasma kallikrein [7]", "value": 1.7, "unit": "nM"}, {"measurement": "IC50", "setting": "Plasminogen [1]", "value": 0.42, "unit": "nM"}, {"measurement": "IC50", "setting": "Coagulation factor XI", "value": "< 0.13", "unit": "nM"}]}
{"smiles": "N=C(N)c1ccc(CNC(=O)[C@H](Cc2cccc(CN)c2)NC(=O)[C@@H](Cc2ccc3ccccc3c2)NS(=O)(=O)Cc2ccccc2)cc1", "values": [{"measurement": "Ki", "setting": "Plasma kallikrein [8]", "value": 0.1, "unit": "nM"}, {"measurement": "Ki", "setting": "Plasminogen [9]", "value": 1.1, "unit": "nM"}]}
{"smiles": "CCc1ccc(C(=O)Nc2cccc3nn4c(C5CCNCC5)cc(=O)[nH]c4c23)cc1", "values": [{"measurement": "IC50", "setting": "Plasma", "value": 10, "unit": "nM"}]}
{"smiles": "Cc1cc2c(=O)c(C(=O)O)c[nH]c2cc1-c1ccc(C[C@H](NC(=O)[C@H]2CC[C@H](CN)CC2)C(=O)Nc2cc(Cl)c3[nH]c(=O)[nH]c3c2)cc1", "values": [{"measurement": "IC50", "setting": "Plasma kallikrein [7]", "value": 0.7, "unit": "nM"}, {"measurement": "IC50", "setting": "Plasminogen [1]", "value": 2.1, "unit": "nM"}, {"measurement": "IC50", "setting": "Coagulation factor XI", "value": 6.5, "unit": "nM"}]}
{"smiles": "Cc1cc(Cl)c2c(c1)nn1c(C3CCNCC3)cc(=O)[nH]c21", "values": [{"measurement": "IC50", "setting": "Plasma", "value": 11, "unit": "nM"}]}
{"smiles": "N=C(N)c1ccc(CNC(=O)[C@H](CCc2ccncc2)NC(=O)[C@@H](CCCc2ccccc2)NS(=O)(=O)Cc2ccccc2)cc1", "values": [{"measurement": "Ki", "setting": "Plasma kallikrein [8]", "value": 0.6, "unit": "nM"}, {"measurement": "Ki", "setting": "Plasminogen [9]", "value": 0.48, "unit": "nM"}]}
{"smiles": "NCCCCCC(=O)N[C@@H](CCCCN)C(=O)Nc1ccc(C(=O)c2ccccc2)cc1", "values": [{"measurement": "IC50", "setting": "Plasminogen [10]", "value": 12000, "unit": "nM"}]}
{"smiles": "N=C(N)c1ccc(CNC(=O)[C@H](CCc2ccccc2)NC(=O)[C@@H](CO)NS(=O)(=O)Cc2ccccc2)cc1", "values": [{"measurement": "Ki", "setting": "[11]", "value": 28, "unit": "nM"}, {"measurement": "Ki", "setting": "Plasminogen [12]", "value": 36, "unit": "nM"}]}
{"smiles": "O=C(NCc1ccco1)Nc1cccc2nn3c(C4CCNCC4)cc(=O)[nH]c3c12", "values": [{"measurement": "IC50", "setting": "Plasma", "value": 85, "unit": "nM"}]}
{"smiles": "CC(C)(C)NC(=O)Nc1cccc2nn3c(C4CCNCC4)cc(=O)[nH]c3c12", "values": [{"measurement": "IC50", "setting": "Plasma", "value": 9.1, "unit": "nM"}]}
{"smiles": "NC[C@H]1CC[C@H](C(=O)N[C@@H](CCCCNC(=O)OCc2ccccc2)C(=O)COc2ccc(C(=O)c3ccccc3)cc2)CC1", "values": [{"measurement": "IC50", "setting": "Plasminogen [10]", "value": 200000, "unit": "nM"}]}
